This passage reports EC50 and CC50 results from patent US11247965B2 (VenatoRx Pharmaceuticals, Inc., priority 2017, dated 2022).

As a reminder, the EC50 is the concentration giving half of the maximal effect. Broadly, the CC50 is the concentration at which the toxic effect on the cells reaches its halfway point. Low values mean harm at low concentration, high ones better tolerance by the cells.

The test system of data set [1] is HBV replication in HepAD38 cells. Briefly: Anti-HBV activity in HepAD38 cells, extracellular HBV DNA by QPCR. Conditions: Hepatitis B virus, HePAD38, 168 h, read-out: Anti-HBV EC50, HepAD38 cells, extracellular HBV DNA by QPCR, 7 days of incubation. The format is cell-based, HBV (genotype D, serotype ayw). The method in brief: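 HepAD38 cells (HepG2 with tet-repressible HBV genotype D genome) seeded overnight, tetracycline removed, then treated 7 days with compounds (half-log dilutions, 30 μM–10 nM; 1:200 from DMSO). Supernatant HBV DNA quantified by QPCR against standard curve; % inhibition vs vehicle, EC50 by 4-parameter fit.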

Data set [2] can be described thus: In vitro cytotoxicity, MTT cell viability assay in HepG2 cells. Format: cell-based. The note with it: human, Cytotoxicity CC50. An outline of the steps: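 CC50 values reflect loss of HepG2 viability after a 7-day exposure at 37 °C, 5% CO2. After 3-4 h with MTT, solubilized formazan was quantified at 492 nm relative to vehicle wells.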

As for `Cc1cc(NC(=O)c2cc(C(O)C(=O)NC(C)(C)C)cn2C)ccc1F` (stereo not shown) [Example 121, 4-(2-(tert-butylamino)-1-hydroxy-2-oxoethyl)-N-(4-fluoro-3-methylphenyl)-1-methyl-1H-pyrrole-2-carboxamide], in data set [1], the EC50 is less than 5 µM. Further, the CC50 at 7 days in data set [2] is more than 30 µM.
Consider `Cc1cc(NC(=O)c2ccc(F)c(C(F)(F)C(=O)N3[C@@H]4CNC[C@H]3COC4)c2)ccc1F` [Example 208, 3-(2-((1R,5S)-3-oxa-7,9-diazabicyclo[3.3.1]nonan-9-yl)-1,1-difluoro-2-oxoethyl)-4-fluoro-N-(4-fluoro-3-methylphenyl)benzamide], for which the EC50 in data set [1] was less than 5 µM. Also, the CC50 at 7 days in data set [2] fell in the range of 5 to 30 µM.
`COc1cc(NC(=O)c2ccc(Cl)c(C(F)(F)C(=O)N3CCC(O)CC3)c2)cc(F)c1F` [Example 61, 4-chloro-3-(1,1-difluoro-2-(4-hydroxypiperidin-1-yl)-2-oxoethyl)-N-(3,4-difluoro-5-methoxyphenyl)benzamide]: in data set [1], the concentration for a half-maximal effect (EC50) fell in the range of 5 to 30 µM. The CC50 at 7 days in data set [2] is more than 30 µM.
Take `Cc1cc(NC(=O)c2ccc(F)c(C(F)(F)C(=O)N3CCC(NC(=O)CC4CCOCC4)CC3)c2)ccc1F` [Example 232, 3-(1,1-difluoro-2-oxo-2-(4-(2-(tetrahydro-2H-pyran-4-yl)acetamido)piperidin-1-yl)ethyl)-4-fluoro-N-(4-fluoro-3-methylphenyl)benzamide]: the EC50 in data set [1] was less than 5 µM. The compound further came in with a CC50 at 7 days in data set [2] of 5 to 30 µM.
`Cc1cc(NC(=O)c2ccc(F)c(C(F)(F)C(=O)NC(C)(C)CO)c2)ccc1F` [Example 28, 3-(1,1-difluoro-2-((1-hydroxy-2-methylpropan-2-yl)amino)-2-oxoethyl)-4-fluoro-N-(4-fluoro-3-methylphenyl)benzamide]: the EC50 in data set [1] fell in the range of 5 to 30 µM. Also, the CC50 at 7 days in data set [2] is more than 30 µM.
Take `Cc1cc(NC(=O)c2ccc(F)c(C(F)(F)C(=O)N3C4CC[C@@H]3C[C@@H](NS(C)(=O)=O)C4)c2)ccc1F` [Example 261, 3-(1,1-difluoro-2-((1R,3s,5S)-3-(methylsulfonamido)-8-azabicyclo[3.2.1]octan-8-yl)-2-oxoethyl)-4-fluoro-N-(4-fluoro-3-methylphenyl)benzamide]: in data set [1], the EC50 was less than 5 µM. In data set [2], this compound showed a CC50 at 7 days of less than 5 µM.
With `CC(=O)N[C@H]1CCN(C(=O)C(F)(F)c2cc(C(=O)Nc3ccc(F)c(C)c3)ccc2F)CC1(C)C` [Example 327, (S)-3-(2-(4-acetamido-3,3-dimethylpiperidin-1-yl)-1,1-difluoro-2-oxoethyl)-4-fluoro-N-(4-fluoro-3-methylphenyl)benzamide], in data set [1], the EC50 was less than 5 µM. The compound further showed a 50% cytotoxic concentration (CC50) at 7 days in data set [2] of more than 30 µM.
In the same order, the values of `Cc1cc(NC(=O)c2ccc(F)c(C(F)(F)C(=O)N3C4CC[C@@H]3C[C@@H](C(=O)O)C4)c2)ccc1F` [Example 259, (1R,3s,5S)-8-(2,2-difluoro-2-(2-fluoro-5-((4-fluoro-3-methylphenyl)carbamoyl)phenyl)acetyl)-8-azabicyclo[3.2.1]octane-3-carboxylic acid] are less than 5 µM and more than 30 µM.
In the case of `Cc1cc(NC(=O)c2ccc(F)c(C(F)(F)C(=O)N3CCC4(CC3)NC(=O)NC4=O)c2)ccc1F` [Example 269, 3-(2-(2,4-dioxo-1,3,8-triazaspiro[4.5]decan-8-yl)-1,1-difluoro-2-oxoethyl)-4-fluoro-N-(4-fluoro-3-methylphenyl)benzamide], in data set [1], the EC50 was less than 5 µM. Besides, in data set [2], the 50% cytotoxic concentration (CC50) at 7 days was more than 30 µM.
On to `O=C(Nc1ccc(F)c(F)c1)c1ccc(F)c(C(F)(F)C(=O)N2CCC(CO)CC2)c1` [Example 48, 3-(1,1-difluoro-2-(4-(hydroxymethyl)piperidin-1-yl)-2-oxoethyl)-N-(3,4-difluorophenyl)-4-fluorobenzamide], for which, in data set [1], the EC50 was less than 5 µM. Besides, the CC50 at 7 days in data set [2] was in the range of 5 to 30 µM.
In the same order, the values of `CCCN(CCO)C(=O)C(F)(F)c1cc(C(=O)Nc2ccc(F)c(F)c2)ccc1F` [Example 52, 3-(1,1-difluoro-2-((2-hydroxyethyl)(propyl)amino)-2-oxoethyl)-N-(3,4-difluorophenyl)-4-fluorobenzamide] are 5 to 30 µM and more than 30 µM.
For `Cc1cc(NC(=O)c2ccc(F)c(C(F)(F)C(=O)N3[C@@H]4CC[C@H]3C[C@@H](O)C4)c2)cc(F)n1` [Example 224, 3-(1,1-difluoro-2-((1R,3r,5S)-3-hydroxy-8-azabicyclo[3.2.1]octan-8-yl)-2-oxoethyl)-4-fluoro-N-(2-fluoro-6-methylpyridin-4-yl)benzamide], in that order: less than 5 µM and less than 5 µM.
On to `Cn1ccc(C(=O)Nc2ccc(F)c(Cl)c2)c1C(F)(F)C(=O)N[C@@H]1CCOC1` [Example 143, (R)-N-(3-chloro-4-fluorophenyl)-2-(1,1-difluoro-2-oxo-2-((tetrahydrofuran-3-yl)amino)ethyl)-1-methyl-1H-pyrrole-3-carboxamide], for which, in data set [1], the EC50 was 5 to 30 µM. The compound also showed a CC50 at 7 days in data set [2] of more than 30 µM.
Take `O=C(Nc1ccnc(Cl)c1)c1ccc(F)c(C(F)(F)C(=O)N2[C@@H]3CC[C@H]2C[C@H](O)C3)c1` [Example 197, N-(2-chloropyridin-4-yl)-3-(1,1-difluoro-2-((1R,3s,5S)-3-hydroxy-8-azabicyclo[3.2.1]octan-8-yl)-2-oxoethyl)-4-fluorobenzamide]: the EC50 in data set [1] is less than 5 µM. The compound also yielded a cytotoxic concentration (CC50) at 7 days in data set [2] of less than 5 µM.
Consider `Cc1cc(NC(=O)c2cc(C(F)(F)C(=O)N3CCC(O)CC3)n(C)c2)ccc1F` [Example 97, 5-(1,1-difluoro-2-(4-hydroxypiperidin-1-yl)-2-oxoethyl)-N-(4-fluoro-3-methylphenyl)-1-methyl-1H-pyrrole-3-carboxamide], for which, in data set [1], the EC50 was less than 5 µM. Besides, the CC50 at 7 days in data set [2] is more than 30 µM.
As to `O=C(Nc1ccc(F)c(F)c1)c1ccc(F)c(C(F)(F)C(=O)N2CCCC(O)C2)c1` (stereo not shown) [Example 15, 3-(1,1-difluoro-2-(3-hydroxypiperidin-1-yl)-2-oxoethyl)-N-(3,4-difluorophenyl)-4-fluorobenzamide], the EC50 in data set [1] is less than 5 µM. In data set [2], this compound displayed a CC50 at 7 days of 5 to 30 µM.
Consider `O=C(Nc1ccc(F)c(F)c1)c1ccc(Cl)c(C(F)(F)C(=O)N2CCC(O)CC2)c1` [Example 42, 4-chloro-3-(1,1-difluoro-2-(4-hydroxypiperidin-1-yl)-2-oxoethyl)-N-(3,4-difluorophenyl)benzamide], for which the EC50 in data set [1] is less than 5 µM. Further, in data set [2], the CC50 at 7 days was in the range of 5 to 30 µM.
As for `Cc1cc(NC(=O)c2cnc(C(F)(F)C(=O)N3CCC(O)CC3)s2)ccc1F` [Example 44, 2-(1,1-difluoro-2-(4-hydroxypiperidin-1-yl)-2-oxoethyl)-N-(4-fluoro-3-methylphenyl)thiazole-5-carboxamide], the EC50 in data set [1] was more than 30 µM. In data set [2], the CC50 at 7 days is more than 30 µM.
Regarding `Cc1cc(NC(=O)c2cc(C(F)(F)C(=O)N3CCC(O)CC3)ccc2F)ccc1F` [Example 90, 5-(1,1-difluoro-2-(4-hydroxypiperidin-1-yl)-2-oxoethyl)-2-fluoro-N-(4-fluoro-3-methylphenyl)benzamide], in data set [1], the EC50 is less than 5 µM. The CC50 at 7 days in data set [2] lay in the range of 5 to 30 µM.
For the compound `Cc1cc(NC(=O)c2ccc(F)c(C(F)(F)C(=O)N3CCC(B(O)O)CC3)c2)ccc1F` [Example 152, (1-(2,2-difluoro-2-(2-fluoro-5-((4-fluoro-3-methylphenyl)carbamoyl)phenyl)acetyl)piperidin-4-yl)boronic acid], the EC50 in data set [1] was less than 5 µM. Further, the CC50 at 7 days in data set [2] lay within 5 to 30 µM.
For `Cc1cc(NC(=O)c2ccc(C(F)(F)C(=O)NC(C)(C)CO)s2)ccc1F` [Example 82, 5-(1,1-difluoro-2-((1-hydroxy-2-methylpropan-2-yl)amino)-2-oxoethyl)-N-(4-fluoro-3-methylphenyl)thiophene-2-carboxamide], in that order: more than 30 µM and more than 30 µM.
Consider `Cn1cc(C(=O)Nc2ccc(F)c(Cl)c2)cc1C(F)(F)C(=O)NC1(C#N)CC1` [Example 146, N-(3-chloro-4-fluorophenyl)-5-(2-((1-cyanocyclopropyl)amino)-1,1-difluoro-2-oxoethyl)-1-methyl-1H-pyrrole-3-carboxamide], for which the EC50 in data set [1] was less than 5 µM. Also, in data set [2], the CC50 at 7 days was more than 30 µM.
`CC[C@@H](C)NC(=O)C(F)(F)c1cc(C(=O)Nc2ccc(F)c(C)c2)cn1C` [Example 109, (R)-5-(2-(sec-butylamino)-1,1-difluoro-2-oxoethyl)-N-(4-fluoro-3-methylphenyl)-1-methyl-1H-pyrrole-3-carboxamide]: in data set [1], the EC50 is less than 5 µM. In data set [2], this compound had a CC50 at 7 days of more than 30 µM.
As to `Cc1cc(NC(=O)c2ccc(F)c(C(F)(F)C(=O)N3CCC(C(N)=O)CC3)c2)ccc1F` [Example 164, 1-(2,2-difluoro-2-(2-fluoro-5-((4-fluoro-3-methylphenyl)carbamoyl)phenyl)acetyl)piperidine-4-carboxamide], the EC50 in data set [1] was less than 5 µM. This compound also showed a CC50 at 7 days in data set [2] of more than 30 µM.
For `O=C(Nc1ccc(F)c(F)c1)c1ccc(F)c(C(F)(F)C(=O)N2CCOCC2)c1` [Example 4, 3-(1,1-difluoro-2-morpholino-2-oxoethyl)-N-(3,4-difluorophenyl)-4-fluorobenzamide], in that order: 5 to 30 µM and 5 to 30 µM.
In the case of `Cc1cc(NC(=O)c2ccc(Cl)c(C(F)(F)C(=O)N3CC[C@H](O)[C@H](O)C3)c2)ccc1F` [Example 58, 4-chloro-3-(2-((3R,4S)-3,4-dihydroxypiperidin-1-yl)-1,1-difluoro-2-oxoethyl)-N-(4-fluoro-3-methylphenyl)benzamide], the EC50 in data set [1] is less than 5 µM. The same compound registered a CC50 at 7 days in data set [2] of more than 30 µM.
